The text below walks through data of patent US8604053B2, “TRPV1 antagonists” (AbbVie Inc., priority 2008, dated 2013).

The target of series [1] is T1, CYP3A4 (Homo sapiens, UniProt P08684).
T1 construct: human liver microsomes (BD Gentest, 450 μL; final concentration: 0.4 mg/mL); tissue BD Gentest; host or cells: human liver microsomes
Put plainly: CYP3A4 inhibition assay. Format: in vitro ADME. Conditions: human liver microsomes, substrate BZQ; for inhibition at 25 min, 2.2 µM: pH 7.4, probe 7-benzyloxyquiniline (BZQ), 50 μM final, read-out: CYP3A4 % inh @ 2.2 μM. As to the method: Luciferin-H was used as the substrate for CYP2C9; 3-[2-(N,N-diethyl-N-methylammonium)ethyl]-7-methoxy-4-methylcoumarin (AMMC) was used as the substrate for CYP2D6; 7-benzyloxyquiniline (BZQ) was used as the substrate for CYP3A4.
Pre-Incubation Mixture Preparation for CYP3A4: A pre-incubation mixture was prepared by combining 100 mM phosphate buffer (19.35 mL; pH 7.4), human liver microsomes (BD Gentest, 450 μL; final concentration: 0.4 mg/mL), and 10 mM nicotinamide adenine dinucleotide phosphate in 65.4 mM MgCl2 hexahydrate (225 μL; final concentration: 100 μM and 654 μM, respectively). To this was mixture was added a ‘regeneration’ mixture (225 μL) of 333 mM glucose-6-phosphate and 40 U/mL glucose-6-phosphate dehydrogenase in 5 mM sodium citrate (final concentration: 3.3 mM, 0.4 U/mL, and 0.05 mM, respectively).
Substrate Mixture Preparation for CYP3A4: To a solution of 100 mM phosphate buffer, (2.36 mL, pH 7.4) was added 30 mM BZQ in acetonitrile (40 μL; final solution concentration 0.5 mM, final assay concentration 50 μM).
CYP3A4 Inhibiton Assay: To each well in the assay plate containing varying concentrations of test compound or control compound in DMSO (10 μL), CYP3A4 Pre-Incubation Mixture (90 μL) was added to the wells and the assay plate was pre-incubated for 10 minutes at 37° C., with shaking or rocking. A pre-read of each well was performed at 405 nm and 535 nm extinction/emission. CYP3A4 Substrate Mixture (10 μL) was added to all wells and the assay plate was incubated for an additional […] at 37° C., with shaking or rocking. Final DMSO concentration was 1%. A post-read of each well was then performed at 405 nm and 535 nm extinction/emission.
Background: Microsomes from liver hold many membrane-bound enzymes, among them those of drug oxidation.

Series [2] addresses T2, human TRPV1 receptor (hTRPV1) (Homo sapiens, UniProt Q8NER1).
T2 construct: expressed in transfected cells
Put plainly: Capsaicin activation assay (Ca2+ influx, FLIPR). Format: cell-based. The conditions noted are these: hTRPV1 in 1321N1 cells, 0.05 μM capsaicin. Here is the method: Dulbecco's modified Eagle medium (D-MEM) (with 4.5 mg/mL glucose) and fetal bovine serum were obtained from Hyclone Laboratories, Inc. (Logan, Utah). Dulbecco's phosphate-buffered saline (D-PBS) (with 1 mg/mL glucose and 3.6 mg/l Na pyruvate, without phenol red), L-glutamine, hygromycin B, and Lipofectamine® were obtained from Life Technologies (Grand Island, N.Y.). G418 sulfate was obtained from Calbiochem-Novabiochem Corp. (San Diego, Calif.). Capsaicin (8-methyl-N-vanillyl-6-nonenamide) was obtained from Sigma-Aldrich, Co. (St. Louis, Mo.). Fluo-4 AM (N-[4-[6-[(acetyloxy)methoxy]-2,7-difluoro-3-oxo-3H-xanthen-9-yl]-2-[2-[2-[bis[2-[(acetyloxy)methoxy]-2-oxyethyl]amino]-5-methyl-phenoxy[ethoxy]phenyl]-N-[2-[(acetyloxy)methoxy]-2-oxyethyl]-glycine, (acetyloxy)methyl ester) was purchased from Molecular Probes (Eugene, Oreg.).
The cDNAs for the human TRPV1 receptor (hTRPV1) were isolated by reverse transcriptase-polymerase chain reaction (RT-PCR) from human small intestine poly A+ RNA supplied by Clontech (Palo Alto, Calif.) using primers designed surrounding the initiation and termination codons identical to the published sequences (Hayes et al. Pain 2000, 88, 205-215). The resulting cDNA PCR products were subcloned into pClneo mammalian expression vector (Promega) and fully sequenced using fluorescent dye-terminator reagents (Prism, Perkin-Elmer Applied Biosystems Division) and a Perkin-Elmer Applied Biosystems Model 373 DNA sequencer or Model 310 genetic analyzer. Expression plasmids encoding the hTRPV1 cDNA were transfected individually into 1321N1 human astrocytoma cells using Lipofectamine®. Forty-eight hours after transfection, the neomycin-resistant cells were selected with growth medium containing 800 μg/mL Geneticin (Gibco BRL). Surviving individual colonies were isolated and screened for TRPV1 receptor activity. Cells expressing recombinant homomeric TRPV1 receptors were maintained at 37° C. in D-MEM containing 4 mM L-glutamine, 300 μg/mL G418 (Cal-biochem) and 10% fetal bovine serum under a humidified 5% CO2 atmosphere.
The functional activity of compounds at the TRPV1 receptor was determined with a Ca^2+ influx assay and measurement of intracellular Ca^2+ levels ([Ca^2+]i). All compounds were tested over an 11-point half-log concentration range. Compound solutions were prepared in D-PBS (4× final concentration), and diluted serially across 96-well v-bottom tissue culture plates using a Biomek 2000 robotic automation workstation (Beckman-Coulter, Inc., Fullerton, Calif.). A 0.2 μM solution of the TRPV1 agonist capsaicin was also prepared in D-PBS. The fluorescent Ca^2+ chelating dye Fluo-4 AM was used as an indicator of the relative levels of [Ca^2+]i in a 96-well format using a Fluorescence Imaging Plate Reader (FLIPR)(Molecular Devices, Sunnyvale, Calif.). Cells were grown to confluency in 96-well black-walled tissue culture plates. Then, prior to the assay, the cells were loaded with 100 μL per well of Fluo-4 AM (2 μM, in D-PBS) for 1-2 hours at 23° C. Washing of the cells was performed to remove extracellular Fluo-4 AM (2×1 mL D-PBS per well), and afterward, the cells were placed in the reading chamber of the FLIPR instrument. 50 μL of the compound solutions were added to the cells at the 10 second time mark of the experimental run. Then, after a 3-minute time delay, 50 μL of the capsaicin solution was added at the, 190 second time mark (0.05 μM final concentration)(final volume=200 μL) to challenge the TRPV1 receptor. Time length of the experimental run was 240 seconds. Fluorescence readings were made at 1 to 5 second intervals over the course of the experimental run. The peak increase in relative fluorescence units (minus baseline) was calculated from the 190 second time mark to the end of the experimental run, and expressed as a percentage of the 0.05 μM capsaicin (control) response. […]

A short description of series [3]: Assessment of hemodynamic profile in anesthetized rat. The format is in vivo. Conditions: i.v. infusion 3, 10 and 30 mg/kg/30 minutes/dose, relative to vehicle control group. As to the method:
Male Sprague-Dawley rats were anesthetized with Inactin, instrumented, and allowed to stabilize. Following a 30 minute baseline period, test compound was infused via intravenous administration at 3, 10, and 30 mg/kg/30 minutes/dose in a low volume PEG-400 vehicle (1 mL/kg) or 20:40:40 dimethylacetamide:propylene glycol:PEG-400 vehicle (1 mL/kg). A separate group of animals received infusion of vehicle alone. Mean arterial pressure (MAP) and heart rate (HR) were observed and recorded.

T1 sequence (P08684 whole entry): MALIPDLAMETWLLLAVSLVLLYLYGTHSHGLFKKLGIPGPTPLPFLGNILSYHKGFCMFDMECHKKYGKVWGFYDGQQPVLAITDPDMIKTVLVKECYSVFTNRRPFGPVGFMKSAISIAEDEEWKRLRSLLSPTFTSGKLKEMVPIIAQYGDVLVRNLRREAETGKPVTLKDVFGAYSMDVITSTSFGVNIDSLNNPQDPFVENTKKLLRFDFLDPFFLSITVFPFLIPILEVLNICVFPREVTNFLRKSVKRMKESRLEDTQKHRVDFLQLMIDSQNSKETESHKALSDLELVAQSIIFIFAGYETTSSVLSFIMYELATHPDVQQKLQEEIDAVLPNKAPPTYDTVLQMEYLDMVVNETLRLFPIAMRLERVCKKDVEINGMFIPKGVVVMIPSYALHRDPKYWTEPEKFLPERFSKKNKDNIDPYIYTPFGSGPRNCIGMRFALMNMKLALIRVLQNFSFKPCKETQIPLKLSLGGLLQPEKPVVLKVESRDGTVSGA
T2 sequence (Q8NER1 whole entry): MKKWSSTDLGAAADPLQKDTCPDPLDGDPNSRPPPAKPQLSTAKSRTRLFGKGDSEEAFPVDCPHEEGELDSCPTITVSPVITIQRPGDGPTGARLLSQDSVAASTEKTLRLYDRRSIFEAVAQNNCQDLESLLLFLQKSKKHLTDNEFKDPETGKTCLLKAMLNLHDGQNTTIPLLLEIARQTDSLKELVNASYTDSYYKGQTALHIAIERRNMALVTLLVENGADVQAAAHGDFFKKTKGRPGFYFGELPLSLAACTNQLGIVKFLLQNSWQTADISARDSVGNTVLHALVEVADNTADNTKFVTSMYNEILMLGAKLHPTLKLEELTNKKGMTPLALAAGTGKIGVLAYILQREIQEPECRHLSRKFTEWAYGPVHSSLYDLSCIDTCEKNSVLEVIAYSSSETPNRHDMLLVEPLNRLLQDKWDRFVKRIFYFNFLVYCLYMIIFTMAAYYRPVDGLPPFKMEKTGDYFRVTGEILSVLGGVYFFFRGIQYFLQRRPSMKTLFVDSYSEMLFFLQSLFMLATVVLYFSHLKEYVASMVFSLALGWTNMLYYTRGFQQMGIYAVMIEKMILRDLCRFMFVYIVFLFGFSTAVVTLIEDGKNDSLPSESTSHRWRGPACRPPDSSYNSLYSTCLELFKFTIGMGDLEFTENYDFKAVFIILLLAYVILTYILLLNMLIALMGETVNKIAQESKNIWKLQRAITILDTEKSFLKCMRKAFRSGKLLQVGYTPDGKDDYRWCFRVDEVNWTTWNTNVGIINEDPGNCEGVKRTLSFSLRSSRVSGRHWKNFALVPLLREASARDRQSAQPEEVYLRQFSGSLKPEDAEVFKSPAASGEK

Regarding `CC1(C)C[C@@H](NC(=O)Nc2cccc3cnccc23)c2ccccc2O1` [Example 27, N-[(4R)-2,2-dimethyl-3,4-dihydro-2H-chromen-4-yl]-N′-isoquinolin-5-ylurea], the inhibition at 25 min, 2.2 µM in series [1] stood at 65%. For the same compound, inhibition in series [2] was half-maximal at 32 nM (IC50).

Regarding `Cc1cc2c(NC(=O)N[C@@H]3CC(CF)(CF)Oc4c(OC(F)(F)F)cccc43)cccc2cn1` [Example 87, N-[(4R)-2,2-bis(fluoromethyl)-8-(trifluoromethoxy)-3,4-dihydro-2H-chromen-4-yl]-N′-(3-methylisoquinolin-5-yl)urea], in series [1], the inhibition at 25 min, 2.2 µM came to 0%. For the same compound, the IC50 (commonly the concentration that inhibits the measured activity by half) in series [2] turned out to be 10 nM.

As for `CC1(C)C[C@@H](NC(=O)Nc2cccc3cnccc23)c2ccc(C(F)(F)F)cc2O1` [Example 34, N-[(4R)-2,2-dimethyl-7-(trifluoromethyl)-3,4-dihydro-2H-chromen-4-yl]-N′-isoquinolin-5-ylurea], in series [1], the inhibition at 25 min, 2.2 µM is 36%. The same compound yielded an IC50 in series [2] of 5 nM.

For `CCCC1(CCC)C[C@@H](NC(=O)Nc2cccc3cnc(C)cc23)c2cccc(F)c2O1` [Example 68, N-[(4R)-8-fluoro-2,2-dipropyl-3,4-dihydro-2H-chromen-4-yl]-N′-(3-methylisoquinolin-5-yl)urea], in series [1], the inhibition at 25 min, 2.2 µM worked out at 6.4%. Also, inhibition in series [2] was half-maximal at 16 nM (IC50).

For `Cc1cc2c(NC(=O)N[C@@H]3CC(CF)(CF)Oc4cc(Cl)ccc43)cccc2cn1` [Example 84, N-[(4R)-7-chloro-2,2-bis(fluoromethyl)-3,4-dihydro-2H-chromen-4-yl]-N′-(3-methylisoquinolin-5-yl)urea], the “Change in MAP or HR ≧ 15% ?” value in series [3] is recorded as “No (an observed increase or decrease of less than or equal to 15% in MAP (mean arterial pressure) or HR (heart rate) in the test group of animals relative to the vehicle control group is indicated as “No” in the table)”. In series [2], this compound showed an IC50 of 11 nM.

Take `CCC1(CC)C[C@@H](NC(=O)Nc2cccc3cnc(Cl)cc23)c2cccc(F)c2O1` [Example 81, N-(3-chloroisoquinolin-5-yl)-N′-[(4R)-2,2-diethyl-8-fluoro-3,4-dihydro-2H-chromen-4-yl]urea]: in series [1], the inhibition at 25 min, 2.2 µM amounted to 0%. Further, inhibition in series [2] was half-maximal at 5 nM (IC50).

Regarding “N-[(4R)-6,8-difluoro-2,2-dimethyl-3,4-dihydro-2H-chromen-4-yl]-N′-isoquinolin-5-ylurea [Example 17]”, the “CYP3A4 % inh @ 2.2 μM” value in series [1] amounted to 63%. In addition, in series [2], the IC50 worked out at 32 nM.

Regarding `Cc1cc2c(NC(=O)N[C@@H]3CC(CF)(CF)Oc4ccccc43)cccc2cn1` [Example 101, N-[(4R)-2,2-bis(fluoromethyl)-3,4-dihydro-2H-chromen-4-yl]-N′-(3-methylisoquinolin-5-yl)urea], in series [3], the “Change in MAP or HR ≧ 15% ?” value is given as “Yes (An observed increase or decrease of greater than 15% in MAP (mean arterial pressure) or HR (heart rate) in one or more of the animals in the test group relative to the vehicle control group is indicated as “Yes” in the table)”. In series [2], this compound came in with an IC50 of 91 nM.

In the case of `Cc1cc2c(NC(=O)N[C@@H]3C[C@](C)(CF)Oc4c(F)cccc43)cccc2cn1` [Example 126, N-[(2R,4R)-8-fluoro-2-(fluoromethyl)-2-methyl-3,4-dihydro-2H-chromen-4-yl]-N′-(3-methylisoquinolin-5-yl)urea], the inhibition at 25 min, 2.2 µM in series [1] came out at 11%. The same compound registered an IC50 in series [2] of 200 nM.

As to `Cc1cc2c(NC(=O)N[C@@H]3C[C@@](C)(CF)Oc4c(F)cccc43)cccc2cn1` [Example 128, N-[(2S,4R)-8-fluoro-2-(fluoromethyl)-2-methyl-3,4-dihydro-2H-chromen-4-yl]-N′-(3-methylisoquinolin-5-yl)urea], the inhibition at 25 min, 2.2 µM in series [1] is 0%. Further, the half-inhibitory concentration (IC50) in series [2] was found to be 300 nM.

`Cc1cc2c(NC(=O)N[C@@H]3CC(CF)(CF)Oc4c(Cl)cccc43)cccc2cn1` [Example 91, N-[(4R)-8-chloro-2,2-bis(fluoromethyl)-3,4-dihydro-2H-chromen-4-yl]-N′-(3-methylisoquinolin-5-yl)urea]: the inhibition at 25 min, 2.2 µM in series [1] was 3.8%. The compound further came in with an IC50 in series [2] of 26 nM.

As to `Cc1cc2c(NC(=O)N[C@@H]3CC(CF)(CF)Oc4cc(Br)ccc43)cccc2cn1` [Example 102, N-[(4R)-7-bromo-2,2-bis(fluoromethyl)-3,4-dihydro-2H-chromen-4-yl]-N′-(3-methylisoquinolin-5-yl)urea], half-maximal inhibition in series [2] (IC50) was put at 14 nM.

For `Cc1cc2c(NC(=O)N[C@@H]3CC(C)(C)Oc4c(OC(F)(F)F)cccc43)cccc2cn1` [Example 94, N-[(4R)-2,2-dimethyl-8-(trifluoromethoxy)-3,4-dihydro-2H-chromen-4-yl]-N′-(3-methylisoquinolin-5-yl)urea], the inhibition at 25 min, 2.2 µM in series [1] was found to be 0%. This compound also yielded an IC50 in series [2] of 9 nM.

As for “N-[(4R)-7-fluoro-2,2,8-trimethyl-3,4-dihydro-2H-chromen-4-yl]-N-(3-methylisoquinolin-5-yl)urea [Example 111]”, the “CYP3A4 % inh @ 2.2 μM” value in series [1] amounted to 0%. 24 nM corresponded to half-maximal inhibition in series [2] (IC50).

For the compound `CC1(C)C[C@@H](NC(=O)Nc2cccc3cnccc23)c2ccc(F)cc2O1` [Example 23, N-[(4R)-7-fluoro-2,2-dimethyl-3,4-dihydro-2H-chromen-4-yl]-N′-isoquinolin-5-ylurea], the inhibition at 25 min, 2.2 µM in series [1] came to 69%. In addition, 6 nM corresponded to half-maximal inhibition in series [2] (IC50).

`CCC1(CC)C[C@@H](NC(=O)Nc2cccc3cnc(C)cc23)c2ccc(Cl)cc2O1` [Example 69, N-[(4R)-7-chloro-2,2-diethyl-3,4-dihydro-2H-chromen-4-yl]-N′-(3-methylisoquinolin-5-yl)urea]: the inhibition at 25 min, 2.2 µM in series [1] was determined as 0%. Moreover, in series [2], the IC50 is 4 nM.
